Test results from patent US5616563A, “Glutathione N-hydroxycarbamoyl thioesters and method of inhibiting neoplastic growth” (University of Maryland Baltimore Campus, priority 1994, dated 1997).

How the values were obtained:
glyoxalase I = target: T1, glyoxalase I (Saccharomyces cerevisiae, UniProt P50107); details: concentration of 50% inhibition of glyoxalase I; c = No inhibitory activity was detected; read-out: I50; cited from earlier work
T1 sequence (P50107 1-326): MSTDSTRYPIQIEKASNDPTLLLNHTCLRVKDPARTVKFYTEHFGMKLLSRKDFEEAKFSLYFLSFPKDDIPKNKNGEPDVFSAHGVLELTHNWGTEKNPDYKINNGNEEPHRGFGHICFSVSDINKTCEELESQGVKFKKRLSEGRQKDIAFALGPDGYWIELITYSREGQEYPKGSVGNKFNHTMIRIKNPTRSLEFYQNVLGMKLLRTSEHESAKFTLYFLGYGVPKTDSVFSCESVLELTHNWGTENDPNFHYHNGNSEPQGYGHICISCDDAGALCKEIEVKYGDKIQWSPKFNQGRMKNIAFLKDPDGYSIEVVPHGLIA

KB cells = details: concentration for 50% kill of the cell culture; cited from earlier work
yeast Glx I = target: T2, yeast Glx I (Saccharomyces cerevisiae, UniProt P50107); assay: Inhibition of yeast glyoxalase I; format: biochemical
T2 construct: purchased Sigma Chem. Co
T2 sequence (P50107 1-326): T1 sequence (P50107 1-326)

L1210 leukemia = details: concentration for 50% kill of the cell culture; cited from earlier work
[1] = test system: normal human VA-2 fibroblasts; assay: Toxicity to normal human fibroblasts; format: cell-based
[2] = test system: Human Leukemia 60 (HL60) cells; assay: Growth inhibition and kill of human leukemia 60 cells; format: cell-based
Procedure: The observation that compounds 2 and 6(c) inhibit tumor cell growth, but were not strongly cytotoxic to tumor cells at the concentrations tested, prompted the synthesis of diethyl esters of compounds 6(a), 6(b), and 6(c). These derivatives were then tested with human leukemia cells (HL60 cells) grown in RPMI/fetal calf serum medium at 37° C.
^c Concentration for 50% cell kill.

human erythrocyte Glx I = target: T3, human erythrocyte Glx I (Homo sapiens, UniProt Q04760); assay: Inhibition of human erythrocyte glyoxalase I; format: biochemical; details: Table 7; read-out: Ki (competitive inhibition constants with human erythrocyte glyoxalase I)
T3 construct: Human erythrocyte Glx I was purified to homogeneity from out-dated human blood; from tissue; host or cells: human erythrocytes (out-dated human blood)
T3 sequence (Q04760 2-184 limits assumed): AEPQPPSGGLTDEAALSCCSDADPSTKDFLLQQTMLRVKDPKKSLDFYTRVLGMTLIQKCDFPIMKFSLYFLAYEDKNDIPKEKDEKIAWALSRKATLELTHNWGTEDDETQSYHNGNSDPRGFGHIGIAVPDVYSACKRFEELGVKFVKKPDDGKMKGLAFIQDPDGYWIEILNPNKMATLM

[3] = test system: CN(O)C(=O)SC[C@H](NC(=O)CC[C@H](N)C(=O)O)C(=O)NCC(=O)O; assay: purified protein, by the assay type; details: other: as substrate, HEPES buffer (100 mM, pH 7.4), 25° C.
Procedure: The standard errors for Vm and Km were obtained by analysis of the initial rate data using the HYPER program of Cleland.
^a HEPES buffer (100 mM, pH 7.4), 25° C.
^b Listed values are relative to Vm for SD-lactoylglutathione.
^c Inhibition constants obtained from using the enediol analogs as

## C[C@@H](O)C(=O)SC[C@H](NC(=O)CC[C@H](N)C(=O)O)C(=O)NCC(=O)O [S-D-lactoylglutathione, reference compound]
Glyoxalase I
  IC50: 77 µM
KB cells
  LD50 (KB): 0.07 mM
Yeast Glx I
  Ki: 2230 µM
L1210 leukemia
  LD50 (L1210): 0.08 mM

## N[C@@H](CCC(=O)N[C@@H](CSCc1ccc(Br)cc1)C(=O)NCC(=O)O)C(=O)O [S-p-Bromobenzyl glutathione, reference compound]
[1]; fibroblasts, text b533
  LC50: 50 µM
[2]; HL60 cells, text b533
  LC50: 50 µM

## CCOC(=O)CNC(=O)[C@H](CSC(=O)N(O)c1ccccc1)NC(=O)CC[C@H](N)C(=O)OCC [6a(Et)2]
Human erythrocyte Glx I
  Ki: > 1000 µM
[1]; VA-2 fibroblasts, 250 to 300 μM
  inhibition of cell growth: 50-80%
[2]; HL60, 250 to 300 μM
  cell killing: about 100%
[2]; HL60, 72 hr. incubation
  LC50 (concentration for 50% cell kill): 200 µM
  TGI (concentration for total cell growth inhibition): 126 µM
[2]; HL60, 72 hr. incubation, read-out: GI (concentration for 50% cell growth inhibition)
  IC50: 63 µM
[2]; HL60 cells, RPMI/fetal calf serum medium, 37° C.
  toxicity versus corresponding unethylated species: more toxic

## bovine liver glyoxalase II (Bos taurus)
[3]
  Km: 478 µM
